Assay results: patent US20120190546A1, “HERBICIDAL COMPOSITION AND METHOD OF USE THEREOF” (SYNGENTA CROP PROTECTION LLC, priority 2007, published 2012)

Experiments:
[1] = tested on: white clover (Trifolium repens); assay: Glasshouse trial: control of white clover with mesotrione and oxadiazon applied post-emergence; format: in vivo; set-up: key to Synergy (actual vs expected), Plus Mesotrione at 100 g ai/ha / Synergy (actual vs expected), Plus Mesotrione at 150 g ai/ha: ‘n’indicates no synergy observed; *indicates synergy; details: for Synergy (actual vs expected), Plus Mesotrione at 100 g ai/ha / Synergy (actual vs expected), Plus Mesotrione at 150 g ai/ha: Student-Newman-Keuls test; for Actual weed control, Plus Mesotrione at 100 g ai/ha / Actual weed control, Plus Mesotrione at 150 g ai/ha: X-77 0.1% v/v, evaluated 7 and 14 DAT (not said which)
Procedure: (§1) In the following tests, herbicides were applied at reduced field rates because herbicide effects are magnified in a glasshouse environment. The rates tested were selected to give between about 50 and 70% control with herbicides applied alone, so that any synergistic effect could be readily detected when testing mixtures.
(§2) A glasshouse trial was carried out. White clover seeds were sown into standard glasshouse potting mix (1:1 v/v Promix:Vero sand soil) contained in 10 cm square plastic pots. Treatments were replicated three times. Mesotrione (in the form Callisto® 480SE) was applied post-emergence to white clover (Trifolium repens) at either 100 g ai/ha or 150 g ai/ha with or without oxadiazon (in the form Ronstar®). When used, oxadiazon was applied at a rate of 210 g ai/ha or 420 g ai/ha. The adjuvant system was X-77 at 0.1% v/v in deionised water. 200 litres of herbicide/adjuvant system was used per hectare. General weed control was evaluated at 7 and 14 days after treatment (DAT). It is noted that all herbicides were applied at reduced field rates because herbicide effects are magnified in a glasshouse environment. Rates were chosen to give a 50 to 70% level of control with herbicides applied alone as this allows for detection of any synergistic effect when tank mixtures are used.
(§3) The results were evaluated using the Colby formula. The expected result for (A+B) is (A+B)−(AxB/100) where A and B are the ‘observed’ results for A and B on their own.

white clover = assay: Glasshouse trial: control of white clover with mesotrione and oxadiazon applied pre-emergence; format: in vivo, Trifolium repens; set-up: key to Synergy (actual vs expected), Plus Mesotrione at 25 g ai/ha / Synergy (actual vs expected), Plus Mesotrione at 50 g ai/ha: ‘n’indicates no synergy observed; *indicates synergy
Procedure: as §1, §2, §3
A glasshouse trial was carried out as described in Example 1, except that the herbicidal composition was applied pre-emergence, and lower rates of mesotrione were used as indicated below.

[2] = oxadiazon 210 g ai/ha + mesotrione 100 g ai/ha
[3] = oxadiazon 210 g ai/ha + mesotrione 150 g ai/ha
[4] = oxadiazon 420 g ai/ha + mesotrione 100 g ai/ha
[5] = oxadiazon 420 g ai/ha + mesotrione 150 g ai/ha
[6] = oxadiazon 210 g ai/ha + mesotrione 25 g ai/ha
[7] = oxadiazon 210 g ai/ha + mesotrione 50 g ai/ha
[8] = oxadiazon 420 g ai/ha + mesotrione 25 g ai/ha
[9] = oxadiazon 420 g ai/ha + mesotrione 50 g ai/ha

5-tert-butyl-3-(2,4-dichloro-5-isopropoxyphenyl)-1,3,4-oxadiazol-2(3M-one [Oxadiazon]
Expected weed control (Colby formula), Plus Mesotrione at 100 g ai/ha [1, 2]: 48%
Synergy (actual vs expected), Plus Mesotrione at 100 g ai/ha [1, 2]: n
Actual weed control, Plus Mesotrione at 100 g ai/ha [1, 2]: 48%
Expected weed control (Colby formula), Plus Mesotrione at 150 g ai/ha [1, 3]: 68%
Synergy (actual vs expected), Plus Mesotrione at 150 g ai/ha [1, 3]: *
Actual weed control, Plus Mesotrione at 150 g ai/ha [1, 3]: 77%
Expected weed control (Colby formula), Plus Mesotrione at 100 g ai/ha [1, 4]: 49%
Synergy (actual vs expected), Plus Mesotrione at 100 g ai/ha [1, 4]: *
Actual weed control, Plus Mesotrione at 100 g ai/ha [1, 4]: 75%
Expected weed control (Colby formula), Plus Mesotrione at 150 g ai/ha [1, 5]: 69%
Synergy (actual vs expected), Plus Mesotrione at 150 g ai/ha [1, 5]: *
Actual weed control, Plus Mesotrione at 150 g ai/ha [1, 5]: 77%
Actual weed control, Plus Mesotrione at 25 g ai/ha (white clover; [6]): 100%
Expected weed control (Colby formula), Plus Mesotrione at 25 g ai/ha (white clover; [6]): 77%
Synergy (actual vs expected), Plus Mesotrione at 25 g ai/ha (white clover; [6]): *
Actual weed control, Plus Mesotrione at 50 g ai/ha (white clover; [7]): 98%
Expected weed control (Colby formula), Plus Mesotrione at 50 g ai/ha (white clover; [7]): 83%
Synergy (actual vs expected), Plus Mesotrione at 50 g ai/ha (white clover; [7]): *
Actual weed control, Plus Mesotrione at 25 g ai/ha (white clover; [8]): 97%
Expected weed control (Colby formula), Plus Mesotrione at 25 g ai/ha (white clover; [8]): 96%
Synergy (actual vs expected), Plus Mesotrione at 25 g ai/ha (white clover; [8]): *
Actual weed control, Plus Mesotrione at 50 g ai/ha (white clover; [9]): 100%
Expected weed control (Colby formula), Plus Mesotrione at 50 g ai/ha (white clover; [9]): 97%
Synergy (actual vs expected), Plus Mesotrione at 50 g ai/ha (white clover; [9]): *
